Data taken from patent publication US20210300924A1, “5-[6-[[3-(4,5,6,7-TETRAHYDROPYRAZOLO[4,3-C]PYRIDIN-1-YL)AZETIDIN-1-YL]METHYL]MORPHOLIN-4-YL]QUINOLINE-8-CARBONITRILE DERIVATIVES AND SIMILAR COMPOUNDS AS TLR7-9 ANTAGONISTS FOR TREATING SYSTEMIC LUPUS ERYTHEMATOSUS” (Hoffmann-La Roche Inc., priority 2018, published 2021).

What was measured:
[1] = target: T1, human TLR7 (Homo sapiens, UniProt Q9NYK1); experiment: HEK293-Blue-hTLR-7 cells assay; format: cell-based; conditions: HEK293-Blue-hTLR7 cells, R848 stimulation, 20 hrs, SEAP reporter; read-out: HEK/hTLR7 IC50
T1 construct: host or cells: HEK293 (HEK-Blue hTLR7)
T1 sequence (Q9NYK1 27-1049): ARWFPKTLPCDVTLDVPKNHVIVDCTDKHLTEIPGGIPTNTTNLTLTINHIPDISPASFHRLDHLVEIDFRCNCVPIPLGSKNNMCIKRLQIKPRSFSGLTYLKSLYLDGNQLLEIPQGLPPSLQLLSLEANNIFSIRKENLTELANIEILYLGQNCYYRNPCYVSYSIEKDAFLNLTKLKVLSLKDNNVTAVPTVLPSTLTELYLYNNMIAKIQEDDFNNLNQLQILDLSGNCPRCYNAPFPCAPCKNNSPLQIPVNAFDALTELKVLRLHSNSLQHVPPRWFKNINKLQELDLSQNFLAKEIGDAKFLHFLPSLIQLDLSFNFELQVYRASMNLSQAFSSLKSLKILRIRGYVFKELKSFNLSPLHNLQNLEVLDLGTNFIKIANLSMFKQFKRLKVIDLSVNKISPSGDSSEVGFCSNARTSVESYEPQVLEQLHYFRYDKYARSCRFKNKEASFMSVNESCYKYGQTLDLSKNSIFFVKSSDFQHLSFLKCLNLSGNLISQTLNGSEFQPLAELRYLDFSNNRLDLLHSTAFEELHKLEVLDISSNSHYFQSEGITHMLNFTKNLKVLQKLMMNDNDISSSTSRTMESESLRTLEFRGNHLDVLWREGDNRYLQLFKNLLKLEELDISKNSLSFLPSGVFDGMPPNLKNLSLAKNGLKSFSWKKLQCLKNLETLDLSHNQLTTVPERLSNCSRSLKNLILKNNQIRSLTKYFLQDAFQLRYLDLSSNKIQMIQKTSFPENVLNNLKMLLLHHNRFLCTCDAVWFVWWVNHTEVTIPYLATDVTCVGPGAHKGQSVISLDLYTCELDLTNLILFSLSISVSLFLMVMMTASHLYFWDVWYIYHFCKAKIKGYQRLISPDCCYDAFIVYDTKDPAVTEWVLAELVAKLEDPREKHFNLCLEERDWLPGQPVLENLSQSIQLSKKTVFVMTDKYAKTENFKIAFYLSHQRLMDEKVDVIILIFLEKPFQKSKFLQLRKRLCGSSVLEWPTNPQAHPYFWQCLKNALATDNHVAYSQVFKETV
Text: HEK293-Blue-hTLR-7 cells assay:
A stable HEK293-Blue-hTLR-7 cell line was purchased from InvivoGen (Cat. #: hkb-htlr7, San Diego, Calif., USA). These cells were originally designed for studying the stimulation of human TLR7 by monitoring the activation of NF-κB. A SEAP (secreted embryonic alkaline phosphatase) reporter gene was placed under the control of the IFN-β minimal promoter fused to five NF-κB and AP-1-binding sites. The SEAP was induced by activating NF-κB and AP-1 via stimulating HEK-Blue hTLR7 cells with TLR7 ligands. Therefore the reporter expression was declined by TLR7 antagonist under the stimulation of a ligand, such as R848 (Resiquimod), for incubation of 20 hrs. The cell culture supernatant SEAP reporter activity was determined using QUANTI-Blue™ kit (Cat. #: rep-qb1, Invivogen, San Diego, Ca, USA) at a wavelength of 640 nm, a detection medium that turns purple or blue in the presence of alkaline phosphatase.
HEK293-Blue-hTLR7 cells were incubated at a density of 250,000-450,000 cells/mL in a volume of 170 μL in a 96-well plate in Dulbecco's Modified Eagle's medium (DMEM) containing 4.5 g/L glucose, 50 U/mL penicillin, […], […], 2 mM L-glutamine, 10% (v/v) heat-inactivated fetal bovine serum with addition of 20 μL test compound in a serial dilution in the presence of final DMSO at 1% and 10 μL of 20 uM R848 in above DMEM, perform incubation under 37° C. in a CO2 incubator for 20 hrs. Then 20 μL of the supernatant from each well was incubated with 180 μL Quanti-blue substrate solution at 37° C. for 2 hrs and the absorbance was read at 620˜655 nm using a spectrophotometer. The signaling pathway that TLR7 activation leads to downstream NF-κB activation has been widely accepted, and therefore similar reporter assay was modified for evaluating TLR7 antagonist.

[2] = Human microsome stability assay; format: in vitro ADME; conditions: 1 μM test compound, 0.5 mg/mL liver microsomal protein, 37° C., up to 30 minutes; 6.2 = detection limit
Method: Human Microsome Stability Assay
The human microsomal stability assay is used for early assessment of metabolic stability of a test compound in human liver microsomes.
Human liver microsomes (Cat. NO.: 452117, Corning, USA; Cat. NO.:H2610, Xenotech, USA) were preincubated with test compound for 10 minutes at 37° C. in 100 mM potassium phosphate buffer, pH 7.4. The reactions were initiated by adding NADPH regenerating system. The final incubation mixtures contained 1 μM test compound, 0.5 mg/mL liver microsomal protein, 1 mM MgCl2, 1 mM NADP, 1 unit/mL isocitric dehydrogenase and 6 mM isocitric acid in 100 mM potassium phosphate buffer, pH 7.4. After incubation times of 0, 3, 6, 9, 15 and 30 minutes at 37° C., 300 μL of cold acetonitrile (including internal standard) was added to 100 μL incubation mixture to terminate the reaction. Following precipitation and centrifugation, the amount of compound remaining in the samples were determined by LC-MS/MS. Controls of no NADPH regenerating system at zero and 30 minutes were also prepared and analyzed.

IC50 [1]	Clearance of Human microsome [2]	SMILES
7 nM	7.1 mL/min/kg	Cc1nn(C2CN(C[C@H]3CN(c4ccc(C#N)c5ncccc45)C[C@@H](C)O3)C2)c2c1CCNC2 [Example 42, 5-[(2R,6S)-2-methyl-6-[[3-(3-methyl-4,5,6,7-tetrahydropyrazolo[3,4-c]pyridin-1-yl)azetidin-1-yl]methyl]morpholin-4-yl]quinoline-8-carbonitrile]
17 nM	6.5 mL/min/kg	Cc1c2c(nn1C1CN(C[C@H]3CN(c4ccc(C#N)c5ncccc45)C[C@@H](C)O3)C1)CNCC2 [Example 43, 5-[(2R,6S)-2-methyl-6-[[3-(3-methyl-4,5,6,7-tetrahydropyrazolo[3,4-c]pyridin-2-yl)azetidin-1-yl]methyl]morpholin-4-yl]quinoline-8-carbonitrile]
